Where “and” joins values, the source holds several entries; their conditions need not be identical. Equal entries are not always repeated. Inconclusive results and toxic doses are left out.
System: BDF1 mice, P388 leukemia ip, median survival T/C
Experiment: NCI In Vivo Anticancer Drug Screen. Data for tumor model P388 Leukemia (intraperitoneal) in B6D2F1 (BDF1) mice
Settings: endpoint: median survival time, higher = longer survival
Summary of the method: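 Each value expresses how treatment altered survival: treated-mouse outcome over vehicle-mouse outcome, both groups bearing the transplanted tumour.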

[1] = dose: 12.5 mg/kg/injection, schedule: Q04DX003 (ip), vehicle: saline
[2] = dose: 25.0 mg/kg/injection, schedule: Q01DX009 (ip), vehicle: saline
[3] = dose: 25.0 mg/kg/injection, schedule: Q04DX003 (ip), vehicle: saline
[4] = dose: 50.0 mg/kg/injection, schedule: Q01DX009 (ip), vehicle: saline
[5] = dose: 50.0 mg/kg/injection, schedule: Q04DX003 (ip), vehicle: saline
[6] = dose: 100.0 mg/kg/injection, schedule: Q01DX009 (ip), vehicle: saline
[7] = dose: 100.0 mg/kg/injection, schedule: Q04DX003 (ip), vehicle: saline
[8] = dose: 50.0 mg/kg/injection, schedule: Q01DX009 (ip), vehicle: saline with Tween-80
[9] = dose: 100.0 mg/kg/injection, schedule: Q04DX003 (ip), vehicle: saline with Tween-80
[10] = dose: 200.0 mg/kg/injection, schedule: Q04DX003 (ip), vehicle: saline with Tween-80
[11] = dose: 400.0 mg/kg/injection, schedule: Q04DX003 (ip), vehicle: saline with Tween-80
[12] = dose: 200.0 mg/kg/injection, schedule: Q01DX009 (ip), vehicle: saline
[13] = dose: 200.0 mg/kg/injection, schedule: Q04DX003 (ip), vehicle: saline
[14] = dose: 400.0 mg/kg/injection, schedule: Q01DX009 (ip), vehicle: saline
[15] = dose: 400.0 mg/kg/injection, schedule: Q04DX003 (ip), vehicle: saline
[16] = dose: 50.0 mg/kg/injection, schedule: Q01DX009 (ip), vehicle: Klucel (hydroxypropylcellulose) (HPC)
[17] = dose: 100.0 mg/kg/injection, schedule: Q01DX009 (ip), vehicle: Klucel (hydroxypropylcellulose) (HPC)
[18] = dose: 200.0 mg/kg/injection, schedule: Q01DX009 (ip), vehicle: Klucel (hydroxypropylcellulose) (HPC)
[19] = dose: 100.0 mg/kg/injection, schedule: Q01DX009 (ip), vehicle: saline with Tween-80
[20] = dose: 200.0 mg/kg/injection, schedule: Q01DX009 (ip), vehicle: saline with Tween-80
[21] = dose: 400.0 mg/kg/injection, schedule: Q01DX009 (ip), vehicle: saline with Tween-80
[22] = dose: 100.0 mg/kg/injection, schedule: Q01DX001 (ip), vehicle: saline with Tween-80
[23] = dose: 200.0 mg/kg/injection, schedule: Q01DX001 (ip), vehicle: saline with Tween-80
[24] = dose: 400.0 mg/kg/injection, schedule: Q01DX001 (ip), vehicle: saline with Tween-80

For CC1(C)N=C(N)N=C(N)N1c1cccc(CN)c1, the T/C [1] was 90 % of control, the T/C [2] was 100 % of control and the T/C [3] was 100 % of control. For the same compound, the T/C [4] was 95 % of control and 105 % of control, the T/C [5] was 100 % of control and the T/C [6] was 90 % of control and 110 % of control. The T/C [7] was 104 % of control.

For CCN(CC)CCOc1ccc(C2=C(c3ccccc3)CCc3cc(OC)ccc32)cc1, the T/C (dose: 12.5 mg/kg/injection, schedule: Q01DX009 (ip), vehicle: saline with Tween-80) was 90 % of control, the T/C (dose: 25.0 mg/kg/injection, schedule: Q01DX009 (ip), vehicle: saline with Tween-80) was 90 % of control and the T/C [8] was 95 % of control and 118 % of control.

In the case of COc1cccc2c(=O)cc(C)[nH]c12, the T/C (dose: 25.0 mg/kg/injection, schedule: Q01DX009 (ip), vehicle: water) is reported as 107 % of control, the T/C (dose: 50.0 mg/kg/injection, schedule: Q01DX009 (ip), vehicle: water) is reported as 92 % of control and the T/C (dose: 50.0 mg/kg/injection, schedule: Q04DX003 (ip), vehicle: water) is reported as 103 % of control. For the same compound, the T/C (dose: 100.0 mg/kg/injection, schedule: Q01DX009 (ip), vehicle: water) was 101 % of control, the T/C (dose: 100.0 mg/kg/injection, schedule: Q04DX003 (ip), vehicle: water) was 97 % of control and the T/C (dose: 200.0 mg/kg/injection, schedule: Q01DX009 (ip), vehicle: water) was 91 % of control. For the same compound, the T/C (dose: 200.0 mg/kg/injection, schedule: Q04DX003 (ip), vehicle: water) was 106 % of control, the T/C (dose: 400.0 mg/kg/injection, schedule: Q01DX009 (ip), vehicle: water) was 90 % of control and the T/C (dose: 400.0 mg/kg/injection, schedule: Q04DX003 (ip), vehicle: water) was 98 % of control.

In the case of CC(=O)CC(C)=O.CC(=O)CC(C)=O.[Fe], the T/C (dose: 6.25 mg/kg/injection, schedule: Q01DX009 (ip), vehicle: saline) is reported as 113 % of control, the T/C (dose: 6.25 mg/kg/injection, schedule: Q04DX003 (ip), vehicle: saline) is reported as 113 % of control and the T/C (dose: 12.5 mg/kg/injection, schedule: Q01DX009 (ip), vehicle: saline) is reported as 104 % of control. The T/C [1] was 113 % of control, the T/C [2] was 113 % of control and the T/C [3] was 113 % of control. The T/C (dose: 35.0 mg/kg/injection, schedule: Q04DX003 (ip), vehicle: saline) was 113 % of control.

CN(C)c1ccc(CC2Cc3ccccc3C2=O)cc1 (stereo not drawn) was tested, and the T/C (dose: 100.0 mg/kg/injection, schedule: Q01DX009 (ip), vehicle: other) was 104 % of control, the T/C [9] was 90 % of control and the T/C (dose: 200.0 mg/kg/injection, schedule: Q01DX009 (ip), vehicle: other) was 108 % of control. The T/C [10] was 100 % of control and the T/C [11] was 95 % of control.

For CC(=O)NC1CCCC(O)C1 (stereo not drawn), the T/C [6] was 90 % of control, the T/C [7] was 100 % of control and the T/C [12] was 95 % of control. For the same compound, the T/C [13] was 113 % of control, the T/C [14] was 100 % of control and the T/C [15] was 104 % of control.

For Nc1ccc(OCc2ccc(S(=O)(=O)F)c(Cl)c2)c(Cl)c1, the T/C (dose: 100.0 mg/kg/injection, schedule: Q01DX001 (ip), vehicle: saline) was 103 % of control, the T/C (dose: 200.0 mg/kg/injection, schedule: Q01DX001 (ip), vehicle: saline) was 100 % of control and the T/C (dose: 400.0 mg/kg/injection, schedule: Q01DX001 (ip), vehicle: saline) was 92 % of control.

C/C(CC(c1ccccc1)N1CCc2ccccc2C1)=N/O (stereo not drawn) was tested, and the T/C (dose: 100.0 mg/kg/injection, schedule: Q04DX003 (ip), vehicle: saline sonified) was 104 % of control, the T/C (dose: 200.0 mg/kg/injection, schedule: Q04DX003 (ip), vehicle: saline sonified) was 109 % of control and the T/C (dose: 400.0 mg/kg/injection, schedule: Q04DX003 (ip), vehicle: saline sonified) was 90 % of control.

With CN(C)/N=N/c1nc[nH]c1C(N)=O the T/C (dose: 25.0 mg/kg/injection, schedule: Q01DX010 (ip), vehicle: saline) was 116 % of control, the T/C [16] was 100 % of control and 108 % of control and 123 % of control and the T/C (dose: 50.0 mg/kg/injection, schedule: Q01DX010 (ip), vehicle: saline) was 100 % of control. For the same compound, the T/C [17] was 92 % of control and 97 % of control and 100 % of control, the T/C [18] was 100 % of control (2×) and 115 % of control and the T/C (dose: 208.0 mg/kg/injection, schedule: Q01DX001 (ip), vehicle: carboxymethylcellulose (CMC)) was 109 % of control. For the same compound, the T/C (dose: 275.0 mg/kg/injection, schedule: Q01DX001 (ip), vehicle: carboxymethylcellulose (CMC)) was 110 % of control and 116 % of control, the T/C (dose: 400.0 mg/kg/injection, schedule: Q01DX009 (ip), vehicle: Klucel (hydroxypropylcellulose) (HPC)) was 115 % of control and 122 % of control and 123 % of control and the T/C (dose: 418.0 mg/kg/injection, schedule: Q01DX001 (ip), vehicle: carboxymethylcellulose (CMC)) was 119 % of control. The T/C (dose: 775.0 mg/kg/injection, schedule: Q01DX001 (ip), vehicle: carboxymethylcellulose (CMC)) was 158 % of control.

With Cc1c2c(cc3c1[nH]c1ccccc13)C(c1ccc(Cl)cc1)=NCC2 the T/C [17] was 86 % of control.

For CC1(C(=O)O)CCC(C(=O)Nc2ccccc2)C1(C)C (stereo not drawn), the T/C [19] was 92 % of control, the T/C [9] was 100 % of control and the T/C [20] was 92 % of control. For the same compound, the T/C [10] was 90 % of control, the T/C [21] was 92 % of control and the T/C [11] was 104 % of control.

O=c1cc(Cl)c2ccccc2[nH]1 was tested, and the T/C [19] was 100 % of control, the T/C [9] was 109 % of control and the T/C [20] was 91 % of control. The T/C [10] was 100 % of control, the T/C [21] was 100 % of control and the T/C [11] was 100 % of control.

O=[N+]([O-])c1cc([N+](=O)[O-])c(Nn2c3ccccc3c3ccccc32)c([N+](=O)[O-])c1 was tested, and the T/C (dose: 6.25 mg/kg/injection, schedule: Q01DX009 (ip), vehicle: Klucel (hydroxypropylcellulose) (HPC)) was 100 % of control, the T/C (dose: 12.5 mg/kg/injection, schedule: Q01DX009 (ip), vehicle: Klucel (hydroxypropylcellulose) (HPC)) was 90 % of control and 100 % of control and the T/C (dose: 25.0 mg/kg/injection, schedule: Q01DX009 (ip), vehicle: Klucel (hydroxypropylcellulose) (HPC)) was 100 % of control and 110 % of control. The T/C [16] was 120 % of control, the T/C [17] was 100 % of control and the T/C (dose: 100.0 mg/kg/injection, schedule: Q04DX003 (ip), vehicle: Klucel (hydroxypropylcellulose) (HPC)) was 100 % of control. The T/C [18] was 95 % of control and the T/C (dose: 200.0 mg/kg/injection, schedule: Q04DX003 (ip), vehicle: Klucel (hydroxypropylcellulose) (HPC)) was 113 % of control.

In the case of CO/N=C/c1cccnc1, the T/C (dose: 50.0 mg/kg/injection, schedule: Q01DX005 (ip), vehicle: saline) is reported as 101 % of control and the T/C (dose: 100.0 mg/kg/injection, schedule: Q01DX005 (ip), vehicle: saline) is reported as 105 % of control.

In the case of Nc1ccc2c(-c3ccccc3)cc(NCCCN3CCOCC3)nc2n1, the T/C [7] is reported as 104 % of control and the T/C [13] is reported as 100 % of control.

With CCOC(=O)/C=C(\C)OCC the T/C [2] was 104 % of control, the T/C [3] was 92 % of control and 111 % of control and the T/C [4] was 101 % of control. The T/C [5] was 94 % of control and 114 % of control, the T/C [6] was 90 % of control and the T/C [7] was 100 % of control. For the same compound, the T/C [12] was 109 % of control, the T/C [13] was 98 % of control and 106 % of control and the T/C [14] was 95 % of control. For the same compound, the T/C [15] was 97 % of control and 104 % of control.

O=C(COc1cc(Cl)c(Cl)cc1Cl)OCCN(CCOC(=O)COc1cc(Cl)c(Cl)cc1Cl)C(=O)COc1ccc(Cl)cc1 was tested, and the T/C (dose: 100.0 mg/kg/injection, schedule: Q04DX003 (ip), vehicle: other) was 100 % of control, the T/C (dose: 200.0 mg/kg/injection, schedule: Q04DX003 (ip), vehicle: other) was 86 % of control and the T/C (dose: 400.0 mg/kg/injection, schedule: Q04DX003 (ip), vehicle: other) was 100 % of control.

In the case of CC(C)=CCC/C(C)=C/Cn1cnc2c(ncn2C2OC(CO)C(O)C2O)c1=O (stereo not drawn), the T/C [1] is reported as 110 % of control, the T/C [3] is reported as 105 % of control and the T/C [5] is reported as 114 % of control.

Cc1ccc(NC(=O)c2ccc(Cl)cc2)c(Br)c1 was tested, and the T/C [22] was 100 % of control, the T/C [23] was 109 % of control and the T/C [24] was 100 % of control.

In the case of O=C(O)CC1(c2cccc3ccccc23)OC(=O)c2ccccc21 (stereo not drawn), the T/C [22] is reported as 112 % of control, the T/C [23] is reported as 88 % of control and the T/C [24] is reported as 97 % of control.

Cc1ccc(N2C(=O)CSC2=S)cc1 was tested, and the T/C [8] was 105 % of control, the T/C [19] was 95 % of control and the T/C [20] was 95 % of control.

Source: PubChem BioAssay AID328 (DTP/NCI, 2004)
